Source: patent US20120225093A1, “Abrogating HIV-1 Infection via Drug-Induced Reactivation of Apoptosis” (UNIVERSITY OF MEDICINE AND DENTISTRY OF NEW JERSEY, priority 2010, published 2012)

Assays:
[1] = system: CMV immediate early promoter; experiment: CMV promoter-driven luciferase (pCMV-Ren, pCMV-FF) in 293T cells; assay type: cell-based, cytomegalovirus; details: for CMV-driven Renilla luciferase expression: pCMV-Ren
Description: Plasmids were introduced into 2×10^5 293T cells by transfection using Lipofectamine 2000 (Invitrogen) according to the manufacturer's instructions. Compounds (such as CPX or DEF) were added simultaneously. Cells were harvested at 12 hr post-transfection, washed with PBS, lysed in 0.15 ml of 1× passive lysis buffer (Promega), and assayed for luciferase activity using the Promega dual luciferase reporter system according to the manufacturer's instructions. Jurkat cells (1×10^6 cells) were transfected using FuGENE 6 (Roche) according to the manufacturer's instructions and assayed in a similar fashion after pelleting.
293T cells were selected as a model system to explore the relationship between the drugs, eIF5A and HIV gene expression. These cells efficiently transcribe HIV-1 genes from molecular clones as well as subviral constructs, allowing for early detection of changes in HIV gene expression. To establish the system, assays were carried out to examine the effect of CPX and DEF on the expression of firefly luciferase (FF) from the HIV-1 molecular clone, pNL4-3-LucE-, engineered to carry the FF gene in place of the viral nef gene. The molecular clone was transfected into 293T cells together with the pCMV-Ren vector that expresses Renilla luciferase (Ren) from the cytomegalovirus (CMV) immediate early promoter as a control for transfection efficiency and non-specific effects of the compounds. Dual luciferase assays were conducted at 12 hr post-transfection and results are expressed as relative luciferase activity (FF:Ren). […] Assays therefore were carried out to characterize the action of CPX and DEF on eIF5A and HIV gene expression in 293T cells during the first 12 to 24 hr of drug treatment.

HIV p24 = experiment: p24 expression from pNL4-3-LucE- molecular clone in 293T cells; assay type: cell-based, HIV-1; details: 293T cell extract; 12 hr post-transfection
Description: FIGS. 3A-D are a set of diagrams and photographs showing drug effects on luciferase expression from an HIV-1 molecular clone. A. Comparison of drug effects on luciferase expression from the pNL4-3-LucE- molecular clone in 293T cells. The molecular clone pNL4-3-LucE- and pCMV-Ren were transfected into 293T cells. Drugs were added where indicated at the following concentrations: P2 (30 μM), CPX (30 μM), DEF (250 μM), or DFOX (15 μM). Dual luciferase assays were conducted at 12 hr post-transfection. Firefly (FF) luciferase expression was normalized to Renilla luciferase (Ren) from pCMV-Ren (mean of 2 experiments in duplicate, ±SD). B. Expression in Jurkat cells was assayed essentially as in panel A. C. Firefly and Renilla luciferase RNA expression was analyzed in 293T cells treated as in panel A by RPA using 32P-[UTP] labeled antisense RNA probes corresponding to the C-termini of the FF and Ren luciferase mRNAs. D. Comparison of drug effects on p24 expression from the pNL4-3-LucE- molecular clone in 293T cells. Drugs were added where indicated to the same concentrations as in A. p24 levels were determined in cell extract at 12 hr post-transfection.
p24 core antigen in the supernatant was quantified by ELISA (Retrotek HIV-1 p24™; ZeptoMetrix Corp.; Buffalo, N.Y.). HIV-1 RNA copy number in the supernatant was determined with a PCR-based and FDA-approved assay (Amplicor HIV-1 Monitor™; Roche Diagnostics Corp.; Indianapolis, Ind.). IFN-γ and IL-10 in the supernatant were determined by cytometric bead array (Human Th1/Th2 Cytokine Kit II™; BD Biosciences Pharmingen, San Jose, Calif.).

HIV-1 RNA = experiment: RNase protection assay of HIV RNA from molecular clones in 293T cells; assay type: cell-based; details: for accumulation of FF mRNA: pNL4-3-LucE- in 293T; for reduction of spliced and unspliced HIV RNAs: pNL4-3-LucE-, cytoplasmic and nuclear fractions, 12 hr
Description: 293T cells (2×10^6 cells) were seeded in 10-cmdiameter plates and transfected 20 hr later by using Transfectene (Bio-Rad) and treated with compounds. Cells were harvested at 15 hr post-transfection and suspended in a low salt buffer (10 mM Tris.HCl pH 7.4, 10 mM NaCl, 1.5 mM MgCl2, and 0.5% NP-40). Cells were vortexed for 10 sec and incubated on ice for 10 min. Cell extracts were centrifuged at 500×g for 3 min, followed by cytoplasmic and nuclear RNA isolation from the supernatant and the pellet, respectively, using Trizol (Invitrogen) according to the manufacturer's instructions.
RPA was performed with 10 μg of cytoplasmic RNA and 5 μg of nuclear RNA, using the RPAIII kit from Ambion (Austin, Tex.) according to the manufacturer's instructions. Synthesis of radiolabeled RNA and protection assays were performed as described in Young et al. Mol Cell Biol 2003, 23:6373-6384. To generate antisense RNA probe against the HIV-1 major splice site, firefly luciferase and Renilla luciferase pBSII-KS+HIV (+80-341), pSP-luc and pSP-rluc were linearized with HindIII, XbaI and BsaI, respectively. The resulting probes were 309, 390 and 245 nt long, respectively. The antisense HIV-1 leader RNA probe complementary to nt+83 to −117 of the LTR was generated by subcloning between the XbaI and HindIII sites of the pcDNA3.1 vector. Antisense probe corresponding to the N terminus of eIF5A was generated by subcloning 250 nt of its cDNA sequence into pcDNA3.1.
Next, the effects of CPX and DEF on viral mRNA expression were examined. […] To determine whether the action of CPX and DEF is exerted at the level of the accumulation, splicing or nucleo-cytoplasmic distribution of HIV RNA, pNL4-3-LucE- was transfected into 293T cells and monitored spliced and unspliced HIV RNA after drug treatment. RNase protection assays were carried out using a probe complementary to the 5′ region of all HIV-1 transcripts (Zheng et al. Nat Cell Biol 2003, 5:611-618). The probe spans the major splice donor site so two sizes of protected fragments are generated: unspliced RNA protects an RNA fragment 50 nucleotides (nt) longer than that from spliced RNAs (FIG. 4A). CPX and DEF, but not P2, reduced the level of both spliced and unspliced RNAs by ˜50% (FIG. 4B). […] In contrast, the production of Renilla luciferase RNA driven by the CMV promoter was unchanged in the nucleus and cytoplasm after drug treatment (FIG. 4B). […]
The rev-defective molecular clone pMRev(−) contains the entire HIV-1 genome but Rev expression is prevented by substitutions in its initiation codon. To compare the inhibitory effect of CPX and DEF in the presence and absence of Rev, cells were transfected with pMRev(−), either with or without a Rev expression vector, and RNA was analyzed by RPA as above. […]

| Structure (SMILES) | expression from pCMV-FF (construct I) [1] | CMV-driven Renilla luciferase expression [1] | inhibition of HIV p24 expression from the molecular clone (HIV p24) [%] | accumulation of FF mRNA (HIV-1 RNA) | reduction of spliced and unspliced HIV RNAs (HIV-1 RNA) [%] |
| --- | --- | --- | --- | --- | --- |
| Cc1cc(C2CCCCC2)n(O)c(=O)c1 [CPX, 6-cyclohexyl-1-hydroxy-4-methylpyridin-2[1H]-one] | unaffected | no effect on CMV-driven Renilla luciferase expression | ~60 | decreased accumulation of FF mRNA | ~50 |
| Cc1c(O)c(=O)ccn1C [DEF, 3-hydroxy-1,2-dimethylpyridin-4(1H)-one] | unaffected | no effect on CMV-driven Renilla luciferase expression | ~60 | decreased accumulation of FF mRNA | ~50 |
